Laboratory results from publication PMC11079024, “Identification of a family of species-selective complex I inhibitors as potential anthelmintics” (Nature Communications, 2024).
pIC50: −log10 of the molar value. Like-named read-outs stand apart in the source and are kept apart here.

Experiments:
in vitro = details: human; for viability at 2 days, 3.13 µM / viability at 2 days, 6.25 µM / viability at 2 days, 12.5 µM / viability at 2 days, 25 µM / viability at 2 days, 50 µM / viability at 2 days, 100 µM: HEK293 cells (Flp-In-293), HEK293 viability
[1] = biological target: C. elegans (N2) complex I (NADH:ubiquinone oxidoreductase) (Caenorhabditis elegans, UniProt P24887+Q93873+Q94360); experiment: biochemical; type: biochemical; details: for activity at 0.0001 µM / activity at 0.0005 µM / activity at 0.001 µM / activity at 0.0025 µM / activity at 0.005 µM / activity at 0.013 µM / activity at 0.025 µM / activity at 0.063 µM / activity at 0.125 µM / activity at 0.313 µM / activity at 0.625 µM / activity at 1.5 µM / activity at 3 µM / activity at 15 µM / activity at 37.5 µM / activity at 75 µM: read-out: C. elegans mitochondrial complex I activity; for Log IC50 C. elegans complex I: log10 of IC50 in µM
Sequence of C. elegans (N2) complex I (NADH:ubiquinone oxidoreductase) (Q94360 17-199): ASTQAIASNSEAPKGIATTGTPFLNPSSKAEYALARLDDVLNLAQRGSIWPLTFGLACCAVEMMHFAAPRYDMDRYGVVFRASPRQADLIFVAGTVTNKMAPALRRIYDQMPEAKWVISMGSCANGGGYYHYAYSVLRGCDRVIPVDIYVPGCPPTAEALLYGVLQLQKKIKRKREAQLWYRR
Sequence of C. elegans (N2) complex I (NADH:ubiquinone oxidoreductase) (P24887 whole entry): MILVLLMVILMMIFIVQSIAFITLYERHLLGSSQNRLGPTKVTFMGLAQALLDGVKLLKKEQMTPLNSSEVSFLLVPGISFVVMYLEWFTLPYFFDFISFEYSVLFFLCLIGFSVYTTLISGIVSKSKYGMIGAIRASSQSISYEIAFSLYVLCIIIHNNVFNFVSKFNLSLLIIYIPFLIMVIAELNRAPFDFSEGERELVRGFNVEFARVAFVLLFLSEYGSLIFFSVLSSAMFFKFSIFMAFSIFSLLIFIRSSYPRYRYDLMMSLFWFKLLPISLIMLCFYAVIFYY
Sequence of C. elegans (N2) complex I (NADH:ubiquinone oxidoreductase) (Q93873 31-482): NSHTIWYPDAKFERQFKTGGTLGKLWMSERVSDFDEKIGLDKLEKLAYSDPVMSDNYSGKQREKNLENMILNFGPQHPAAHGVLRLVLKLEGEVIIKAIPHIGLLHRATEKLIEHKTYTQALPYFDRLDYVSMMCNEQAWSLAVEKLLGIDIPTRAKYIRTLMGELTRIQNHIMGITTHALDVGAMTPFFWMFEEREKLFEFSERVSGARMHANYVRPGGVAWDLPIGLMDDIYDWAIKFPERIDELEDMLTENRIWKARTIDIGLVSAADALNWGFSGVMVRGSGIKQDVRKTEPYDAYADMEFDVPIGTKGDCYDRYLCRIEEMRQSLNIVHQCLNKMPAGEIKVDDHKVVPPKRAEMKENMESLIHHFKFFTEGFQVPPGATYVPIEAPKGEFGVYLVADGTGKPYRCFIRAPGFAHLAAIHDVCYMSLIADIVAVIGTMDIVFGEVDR
Method in brief: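 Compounds were tested against freeze-thawed isolated mitochondria (0.2 mg/mL protein). NADH:decylubiquinone activity was monitored via DCIP absorbance at 600 nm, and the initial linear slope was normalised to solvent controls.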

L1 wild-type C. elegans = details: for Screen "Hit": 50 μM, KCN survival assay, hit = relative motility below 0.25
[2] = in vitro complex I dose response on C. elegans mitochondria, average of at least two biological replicates, fit in R (DRC), read-out: IC50 C. elegans complex I
[3] = wild-type (N2) mitochondria, read-out: C. elegans Complex I IC50
[4] = wild-type C. elegans mitochondria, estimated from fitted dose-response curves, read-out: C. elegans Complex I IC50
[5] = Dose 0.2 µM, mean of at least three biological replicates

Structure (SMILES): FC(F)(F)c1cccc(OCCCCn2cnc3ccccc32)c1 [Compound 7925004]
- CC50 at 2 days (in vitro): 29200 nM
- viability at 2 days, 3.13 µM (in vitro): 99.3%
- viability at 2 days, 6.25 µM (in vitro): 99.5%
- viability at 2 days, 12.5 µM (in vitro): 100%
- viability at 2 days, 25 µM (in vitro): 61.3%
- viability at 2 days, 50 µM (in vitro): 16.2%
- viability at 2 days, 100 µM (in vitro): 6.8%
- activity at 0.0001 µM [1]: 115%
- activity at 0.0005 µM [1]: 105%
- activity at 0.001 µM [1]: 110%
- activity at 0.0025 µM [1]: 110%
- activity at 0.005 µM [1]: 105%
- activity at 0.013 µM [1]: 103%
- activity at 0.025 µM [1]: 105%
- activity at 0.063 µM [1]: 104%
- activity at 0.125 µM [1]: 98%
- activity at 0.313 µM [1]: 81.9%
- activity at 0.625 µM [1]: 91.2%
- activity at 1.5 µM [1]: 67.6%
- activity at 3 µM [1]: 48.6%
- activity at 15 µM [1]: 22.1%
- activity at 37.5 µM [1]: 13.1%
- activity at 75 µM [1]: 1.4%
- pIC50 [1, 2]: 5.69
- Log IC50 C. elegans complex I ([1]; C. elegans mitochondria): 0.31 µM
- pIC50 [1, 3]: 5.69
- pIC50 [1, 4]: 5.69
- Screen "Hit" (L1 wild-type C. elegans): Y (hits were identified as compounds that reduced relative motility below 0.25 (75% reduction))
- C. elegans KCN Survival (L1 wild-type C. elegans; [5]): 1.053
- C. elegans KCN Survival (L1 wild-type C. elegans; Dose 0.39 µM): 1.068
- C. elegans KCN Survival (L1 wild-type C. elegans; Dose 1.56 µM): 1.004
- C. elegans KCN Survival (L1 wild-type C. elegans; Dose 3.13 µM): 1.026
- C. elegans KCN Survival (L1 wild-type C. elegans; Dose 6.25 µM): 0.948
- C. elegans KCN Survival (L1 wild-type C. elegans; Dose 12.5 µM): 0.632
- C. elegans KCN Survival (L1 wild-type C. elegans; Dose 25 µM): 0.094
- C. elegans KCN Survival (L1 wild-type C. elegans; Dose 50 µM): 0.092
- C. elegans KCN Survival (L1 wild-type C. elegans; Dose 100 µM): 0.126

Structure (SMILES): Cc1ccccc1OCCCCn1cnc2ccccc21 [Compound 7732524]
- CC50 at 2 days (in vitro; HEK293 Cell Viability Assay LC50, HEK293 cells, estimated from fitted dose-response curves, mean of at least two biological replicates): 49900 nM
- viability at 2 days, 3.13 µM (in vitro): 100%
- viability at 2 days, 6.25 µM (in vitro): 100%
- viability at 2 days, 12.5 µM (in vitro): 100%
- viability at 2 days, 25 µM (in vitro): 93.2%
- viability at 2 days, 50 µM (in vitro): 48.1%
- viability at 2 days, 100 µM (in vitro): 13.7%
- remaining activity at 0.0001 µM ([1]; C. elegans mitochondria, 0.0001 µM, Mean, read-out: in vitro complex I activity relative to solvent control): 109%
- remaining activity at 0.0005 µM ([1]; C. elegans mitochondria, 0.0005 µM, Mean, read-out: in vitro complex I activity relative to solvent control): 117%
- remaining activity at 0.001 µM ([1]; C. elegans mitochondria, 0.001 µM, Mean, read-out: in vitro complex I activity relative to solvent control): 115%
- remaining activity at 0.0025 µM ([1]; C. elegans mitochondria, 0.0025 µM, Mean, read-out: in vitro complex I activity relative to solvent control): 106%
- remaining activity at 0.005 µM ([1]; C. elegans mitochondria, 0.005 µM, Mean, read-out: in vitro complex I activity relative to solvent control): 87.1%
- remaining activity at 0.013 µM ([1]; C. elegans mitochondria, 0.013 µM, Mean, read-out: in vitro complex I activity relative to solvent control): 95.4%
- remaining activity at 0.025 µM ([1]; C. elegans mitochondria, 0.025 µM, Mean, read-out: in vitro complex I activity relative to solvent control): 84.9%
- remaining activity at 0.063 µM ([1]; C. elegans mitochondria, 0.063 µM, Mean, read-out: in vitro complex I activity relative to solvent control): 60.5%
- remaining activity at 0.063 µM ([1]; C. elegans mitochondria, 0.063 µM, single replicate, read-out: in vitro complex I activity relative to solvent control): 65%
- remaining activity at 0.125 µM ([1]; C. elegans mitochondria, 0.125 µM, Mean, read-out: in vitro complex I activity relative to solvent control): 45.4%
- remaining activity at 0.125 µM ([1]; C. elegans mitochondria, 0.125 µM, single replicate, read-out: in vitro complex I activity relative to solvent control): 44.7%
- remaining activity at 0.313 µM ([1]; C. elegans mitochondria, 0.313 µM, Mean, read-out: in vitro complex I activity relative to solvent control): 25.3%
- remaining activity at 0.313 µM ([1]; C. elegans mitochondria, 0.313 µM, single replicate, read-out: in vitro complex I activity relative to solvent control): 21%
- remaining activity at 0.625 µM ([1]; C. elegans mitochondria, 0.625 µM, Mean, read-out: in vitro complex I activity relative to solvent control): 10.1%
- remaining activity at 0.625 µM ([1]; C. elegans mitochondria, 0.625 µM, single replicate, read-out: in vitro complex I activity relative to solvent control): 12.2%
- remaining activity at 1.5 µM ([1]; C. elegans mitochondria, 1.5 µM, Mean, read-out: in vitro complex I activity relative to solvent control): 2.78%
- remaining activity at 3 µM ([1]; C. elegans mitochondria, 3 µM, Mean, read-out: in vitro complex I activity relative to solvent control): 0.645%
- remaining activity at 15 µM ([1]; C. elegans mitochondria, 15 µM, Mean, read-out: in vitro complex I activity relative to solvent control): 0.827%
- remaining activity at 37.5 µM ([1]; C. elegans mitochondria, 37.5 µM, Mean, read-out: in vitro complex I activity relative to solvent control): 0.871%
- remaining activity at 75 µM ([1]; C. elegans mitochondria, 75 µM, Mean, read-out: in vitro complex I activity relative to solvent control): 6.44%
- activity at 0.0001 µM [1]: 130%
- activity at 0.0005 µM [1]: 145%
- activity at 0.001 µM [1]: 142%
- activity at 0.0025 µM [1]: 138%
- activity at 0.005 µM [1]: 126%
- activity at 0.013 µM [1]: 120%
- activity at 0.025 µM [1]: 94.3%
- activity at 0.063 µM [1]: 78.2%
- activity at 0.125 µM [1]: 53.5%
- activity at 0.313 µM [1]: 30.1%
- activity at 0.625 µM [1]: 10.6%
- activity at 1.5 µM [1]: 3.27%
- activity at 3 µM [1]: 1.97%
- activity at 15 µM [1]: 1.08%
- activity at 37.5 µM [1]: 3.31%
- activity at 75 µM [1]: 6.44%
- remaining activity at 0.0001 µM ([1]; dose 0.0001 µM, wild-type C. elegans, mean of replicates, read-out: in vitro complex I activity relative to solvent control, Mean): 109%
- remaining activity at 0.0005 µM ([1]; dose 0.0005 µM, wild-type C. elegans, mean of replicates, read-out: in vitro complex I activity relative to solvent control, Mean): 117%
- remaining activity at 0.001 µM ([1]; dose 0.001 µM, wild-type C. elegans, mean of replicates, read-out: in vitro complex I activity relative to solvent control, Mean): 115%
- remaining activity at 0.0025 µM ([1]; dose 0.0025 µM, wild-type C. elegans, mean of replicates, read-out: in vitro complex I activity relative to solvent control, Mean): 106%
- remaining activity at 0.005 µM ([1]; dose 0.005 µM, wild-type C. elegans, mean of replicates, read-out: in vitro complex I activity relative to solvent control, Mean): 87.1%
- remaining activity at 0.013 µM ([1]; dose 0.013 µM, wild-type C. elegans, mean of replicates, read-out: in vitro complex I activity relative to solvent control, Mean): 95.4%
- remaining activity at 0.025 µM ([1]; dose 0.025 µM, wild-type C. elegans, mean of replicates, read-out: in vitro complex I activity relative to solvent control, Mean): 84.9%
- remaining activity at 0.063 µM ([1]; dose 0.063 µM, wild-type C. elegans, mean of replicates, read-out: in vitro complex I activity relative to solvent control, Mean): 60.5%
- remaining activity at 0.063 µM ([1]; dose 0.063 µM, wild-type C. elegans, single replicate, read-out: in vitro complex I activity relative to solvent control, individual replicate): 65%
- remaining activity at 0.125 µM ([1]; dose 0.125 µM, wild-type C. elegans, mean of replicates, read-out: in vitro complex I activity relative to solvent control, Mean): 45.4%
- remaining activity at 0.125 µM ([1]; dose 0.125 µM, wild-type C. elegans, single replicate, read-out: in vitro complex I activity relative to solvent control, individual replicate): 44.7%
- remaining activity at 0.313 µM ([1]; dose 0.313 µM, wild-type C. elegans, mean of replicates, read-out: in vitro complex I activity relative to solvent control, Mean): 25.3%
- remaining activity at 0.313 µM ([1]; dose 0.313 µM, wild-type C. elegans, single replicate, read-out: in vitro complex I activity relative to solvent control, individual replicate): 21%
- remaining activity at 0.625 µM ([1]; dose 0.625 µM, wild-type C. elegans, mean of replicates, read-out: in vitro complex I activity relative to solvent control, Mean): 10.1%
- remaining activity at 0.625 µM ([1]; dose 0.625 µM, wild-type C. elegans, single replicate, read-out: in vitro complex I activity relative to solvent control, individual replicate): 12.2%
- remaining activity at 1.5 µM ([1]; dose 1.5 µM, wild-type C. elegans, mean of replicates, read-out: in vitro complex I activity relative to solvent control, Mean): 2.78%
- remaining activity at 3 µM ([1]; dose 3 µM, wild-type C. elegans, mean of replicates, read-out: in vitro complex I activity relative to solvent control, Mean): 0.645%
- remaining activity at 15 µM ([1]; dose 15 µM, wild-type C. elegans, mean of replicates, read-out: in vitro complex I activity relative to solvent control, Mean): 0.827%
- remaining activity at 37.5 µM ([1]; dose 37.5 µM, wild-type C. elegans, mean of replicates, read-out: in vitro complex I activity relative to solvent control, Mean): 0.871%
- remaining activity at 75 µM ([1]; dose 75 µM, wild-type C. elegans, mean of replicates, read-out: in vitro complex I activity relative to solvent control, Mean): 6.44%
- pIC50 [1, 2]: 6.85
- Log IC50 C. elegans complex I ([1]; C. elegans mitochondria): -0.85 µM
- pIC50 [1, 3]: 6.85
- pIC50 ([1]; wild-type (N2) mitochondria, read-out: C. elegans complex I IC50): 6.98
- pIC50 [1, 4]: 6.85
- Screen "Hit" (L1 wild-type C. elegans): Y (hits were identified as compounds that reduced relative motility below 0.25 (75% reduction))
- C. elegans KCN Survival (L1 wild-type C. elegans; [5]): 1.002
- C. elegans KCN Survival (L1 wild-type C. elegans; Dose 0.39 µM): 0.963
- C. elegans KCN Survival (L1 wild-type C. elegans; Dose 1.56 µM): 0.887
- C. elegans KCN Survival (L1 wild-type C. elegans; Dose 3.13 µM): 0.828
- C. elegans KCN Survival (L1 wild-type C. elegans; Dose 6.25 µM): 0.509
- C. elegans KCN Survival (L1 wild-type C. elegans; Dose 12.5 µM): 0.007
- C. elegans KCN Survival (L1 wild-type C. elegans; Dose 25 µM): 0.000
- C. elegans KCN Survival (L1 wild-type C. elegans; Dose 50 µM): 0.000
- C. elegans KCN Survival (L1 wild-type C. elegans; Dose 100 µM): 0.000
